This is an account of results in article PMC10764104, “Discovery of Molecular Glue Degraders via Isogenic Morphological Profiling” (ACS Chemical Biology, 2023).

Data set [1] has as its target T1, GSPT2 (Homo sapiens, UniProt Q8IYD1+Q96SW2).
T1 construct: endogenous in cells; host or cells: RKO WT or RKO CRBN KO
Kind of data set: Western blot analysis of GSPT1 and GSPT2 degradation in RKO WT or CRBN KO cells. The format is cell-based. The settings on record: RKO WT or RKO CRBN KO, 10 µM, 16 h. As for the experimental part:
(A) Structure of FL2-14 comprising fluorosulfate scaffold FL2 (black) and tail group modification 14 (blue). (B) DMSO-normalized quantitative proteomics after 16 h of treatment with FL2-14 (10 μM) in RKO WT (n = 2). […] (C) Structural alignment of AlphaFold models of GSPT1 (AF-P15170-F1-model_v4 in gray) and GSPT2 (AF-Q8IYD1-F1-model_v4 in blue). (D) Validation of GSPT2 degradation by FL2-14. […] (E) Dose–response of FL2-14 in RKO and HEK293T cells. Cells were treated with the FL2-14 (0 to 10 μM) for 16 h. (F) Degradation of GSPT2^WT or GSPT2^G566N. […]
Analysis of targeted protein degradation of GSPT1 and GSPT2 via western blot For degradation assays 800 000 RKO WT or CRBN KO cells were seeded 1 day prior to the treatment in 6 well plates.
Then, cells were treated with 10 µM of the compounds for 16 hours if not otherwise stated. Cells were harvested, lysed for 30 min at 37°C in lysis buffer (1x PBS, 1% SDS, 2 mM MgCl2, 1x Halt Protease inhibitor cocktail, 50 Units Benzonase) and cleared for 30 min at 18 000 x g at 4°C. Protein concentration was determined with the Pierce 660 nm Protein Assay using the Ionic Detergent Compatibility Reagent (Thermo Scientific). 10 µg total proteome were subjected to western blot analysis by adding 4x Bolt™ LDS Sample Buffer (Thermo Scientific). Samples were boiled at 95°C for 5 min and subjected to gel electrophoresis with Bolt™ 4‐12% Bis‐Tris Plus Gels (Thermo Scientific) with Bolt™ MES SDS Running Buffer (Thermo Scientific). Membranes were blocked with 5% fat‐free milk in TBS‐T (20 mM Tris, 150 mM NaCl, 0.1% Tween, pH 7.6) for 1 h at room temperature and washed subsequently 3x 5 min with TBS‐
T. Afterwards, they were incubated for 1 h at room temperature with either GSPT1 antibody (Abcam ab49878, rabbit, […]
rabbit, 1:10 000), CRBN (Cell Signaling Technologies, CST71810S, rabbit, 1:1000), or GAPDH (SantaCruz sc‐47724, mouse, 1:1 000). Followed by washing 3x 5 min with TBS‐T and incubation for 1 h at room temperature with either Goat ANTI‐RABBIT IgG StarBright™ Blue 700 (Bio‐Rad, #12004162, 1:10 000) or Goat anti‐Mouse IgG (H+L) Cross‐ Adsorbed Secondary Antibody, DyLight™ 800 (Bio‐Rad, STAR117D800GA, 1:10 000) fluorophore‐conjugated

The target of data set [2] is T2, recombinant DDB1-CRBN (Homo sapiens, UniProt Q96SW2).
T2 construct: His; made in house; host or cells: High Five insect cells (baculovirus made and propagated in SF9 cells)
Kind of data set: Fluorescence polarization-based competition assay for CRBN binding. The settings on record: 200 nM CRBN-DDB1, 20 nM pomalidomide-fluorescein tracer 16, triplicates; read-out: FP_CRBN_binding: CRBN binding affinity, EC50. As for the experimental part:
Prior to screening the compound library in the isogenic CPA, we assessed their CRBN binding affinities using a fluorescence-polarization-based competition assay with recombinant DDB1-CRBN and the fluorescent tracer 16 (Figure S2). […] We also assessed the cytotoxicity of the CRBN binders in RKO wild-type (WT) cells to determine the appropriate treatment concentration. […]
(§1) Fluorescence Polarization‐based competition assay
(§2) Fluorescence Polarization assays were performed in 384‐well, Low Volume, Black, Round Bottom, Polystyrene Nonbinding surface Microplates (Corning, #4514). The test compounds were incubated with 200 nM CRBN‐DDB1 and 20 nM Pomalidomide‐fluorescein tracer 16 in 50 mM Tris‐HCl pH 7.5, 200 mM NaCl, 1 mM DTT, 0.02% Triton X‐ 100, and 0.1 µg/µL Bovine Serum Albumin (Sigma Aldrich, #A7030) in a total volume of 25 µL. Fluorescence polarization values were determined with a PerkinElmer Envision reader with FITC FP dual mirror and FITC FP 480 excitation filter and FITC FP 535 emission filters. Fluorescence polarization values of a 10x serial dilution (10 nM to 100 µM) of the test compounds were determined in triplicates. EC50 values were calculated with GraphPad Prism software (version 10.0.2) with a non‐linear fit function (4PL sigmoidal curve fit) adjusting the bottom constrain to the FP value of free tracer. […]

For data set [3], the system named is RKO WT cells. The data set is described as follows: CellTiter-Glo cytotoxicity of selected compounds (manual, 72 h). The format is cell-based, human. The settings on record: up to 10 μM. Here is the method:
(§3) Assessment of gene expression and essentiality in RKO WT
as §1
(§4) EC50 values were calculated with GraphPad Prism […]
(§5) the FP value of free tracer. […]
(§6) instructions. […] For the screening of the whole SuFEx
(§7) Data visualization was done with seaborn
(§8) (https://seaborn.pydata.org, version 0.12.2). […]
(§9) compounds. (F) Analysis of the cytotoxicity of compounds with treatment‐centric features related to FL2‐ […]
(§10) Synthesis and in Vitro Evaluation of Diverse Heterocyclic Diphenolic Compounds as Inhibitors of DYRK1A.
(§11) (7) Zhang, J.‐H.; Chung, T. D. Y.; Oldenburg, K. R. A Simple Statistical Parameter for Use in Evaluation and Validation of High Throughput Screening Assays. SLAS Discov.

Data set [4] concerns HEK293T cells. The data set is described as above. The format is cell-based, human. The settings on record: up to 10 μM. As for the experimental part:
as §3, §1, §4, §5, §6, §7, §8, §9, §10, §11

Data set [5] relates to RKO WT, RKO CRBN KO and RKO CRBN OE. The data set is described as follows: Isogenic cell painting assay, treatment-centric feature selection and CRBN-dependency prediction. In kind it is cell-based, human.
Data set [6] relates to RKO WT cells. The settings on record: method not stated for this control.
Description: Prior to screening the compound library in the isogenic CPA, we assessed their CRBN binding affinities using a fluorescence-polarization-based competition assay with recombinant DDB1-CRBN and the fluorescent tracer 16 (Figure S2). […] We also assessed the cytotoxicity of the CRBN binders in RKO wild-type (WT) cells to determine the appropriate treatment concentration.
as §3
Public datasets on the transcriptome and essentiality of a protein‐encoding gene for RKO (cell line ID: ACH‐000943) were retrieved from DepMap Public 23Q2 (https://depmap.org/portal/, accessed on 14 August 2023). […]
as §1
as §2, with “The test compounds were incubated with 200 nM CRBN‐DDB1 and 20 nM Pomalidomide‐fluorescein tracer 16 in 50 mM Tris‐HCl pH 7.5, 200 mM NaCl, 1 mM DTT, 0.02% Triton X‐ 100, and 0.1 µg/µL Bovine Serum Albumin (Sigma Aldrich, #A7030) in a total volume of 25 µL.” left out

With `CN(Cc1ncc(C2CC2)o1)S(=O)(=O)Oc1cccc(Nc2ccc3c(c2)C(=O)N(C2CCC(=O)NC2=O)C3=O)c1` (centres unmarked) [FL1-14], the “GSPT1/2 degradation by CRBN binders with tail group modification 14” value in data set [1] is “weak degradation of GSPT2”. The EC50 in data set [2] was determined as 395 nM.

In the case of `O=C1CCC(N2C(=O)c3ccc(Nc4cccc(OS(=O)(=O)N5CCC(c6ccco6)C5)c4)cc3C2=O)C(=O)N1` (centres unmarked) [FL1-12], the EC50 is > 10000 nM in data set [3], > 10000 nM in data set [4] and 2780 nM in data set [2].

Take `COc1cc(N2CCN(CCOCCOCCNC(=O)CNc3cccc4c3C(=O)N(C3CCC(=O)NC3=O)C4=O)CC2)ccc1Nc1ncc(Cl)c(Nc2ccccc2S(=O)(=O)C(C)C)n1` (centres unmarked) [TL 13-12]: the “change of cell size across isogenic RKO cells” value in data set [5] (1.5 μM, RKO CRBN OE vs RKO CRBN KO) was “enlarges cells drastically in a CRBN-dependent manner”.

Regarding `CN1C(=O)CCC(N2C(=O)c3cccc(N)c3C2=O)C1=O` (centres unmarked) [Methylated pomalidomide], the “Number_Features: number of treatment-centric features selected” value in data set [5] is reported as 0.

With `Nc1cccc2c1C(=O)N(C1CCC(=O)NC1=O)C2=O` (centres unmarked) [Pomalidomide, reference compound], in data set [6], the “cytotoxicity to RKO WT” value is reported as “not cytotoxic”.

`O=C1CCC(N2C(=O)c3ccc(Nc4cccc(OS(=O)(=O)N5CC(CCO)C5)c4)cc3C2=O)C(=O)N1` (centres unmarked) [FL1-2]: the EC50 in data set [3] is > 10000 nM; in data set [4], > 10000 nM; in data set [2] it was 419 nM.

In the case of `CN(C)c1ncc(CN(C)S(=O)(=O)Oc2cccc(Nc3ccc4c(c3)C(=O)N(C3CCC(=O)NC3=O)C4=O)c2)cn1` (centres unmarked) [FL1-18], the values for the EC50 in data set [3], in data set [4] and in data set [2] were > 10000 nM, > 10000 nM and 363 nM, respectively.
